# Results published in US20250277030A1, “ANTI-NAPI2B ANTIBODIES AND METHODS OF USE” (Zymeworks BC Inc., priority 2022, published 2025).
# Tests used:
# human NaPi2b = target: T1, human NaPi2b (Homo sapiens, UniProt O95436); assay: Competition binding (epitope binning) by flow cytometry on HEK293-6e cells expressing human NaPi2b; conditions: unlabeled competitor antibody 100 μg/mL, GFP- population
# T1 construct: host or cells: HEK293-6e
# T1 sequence (O95436 1-690): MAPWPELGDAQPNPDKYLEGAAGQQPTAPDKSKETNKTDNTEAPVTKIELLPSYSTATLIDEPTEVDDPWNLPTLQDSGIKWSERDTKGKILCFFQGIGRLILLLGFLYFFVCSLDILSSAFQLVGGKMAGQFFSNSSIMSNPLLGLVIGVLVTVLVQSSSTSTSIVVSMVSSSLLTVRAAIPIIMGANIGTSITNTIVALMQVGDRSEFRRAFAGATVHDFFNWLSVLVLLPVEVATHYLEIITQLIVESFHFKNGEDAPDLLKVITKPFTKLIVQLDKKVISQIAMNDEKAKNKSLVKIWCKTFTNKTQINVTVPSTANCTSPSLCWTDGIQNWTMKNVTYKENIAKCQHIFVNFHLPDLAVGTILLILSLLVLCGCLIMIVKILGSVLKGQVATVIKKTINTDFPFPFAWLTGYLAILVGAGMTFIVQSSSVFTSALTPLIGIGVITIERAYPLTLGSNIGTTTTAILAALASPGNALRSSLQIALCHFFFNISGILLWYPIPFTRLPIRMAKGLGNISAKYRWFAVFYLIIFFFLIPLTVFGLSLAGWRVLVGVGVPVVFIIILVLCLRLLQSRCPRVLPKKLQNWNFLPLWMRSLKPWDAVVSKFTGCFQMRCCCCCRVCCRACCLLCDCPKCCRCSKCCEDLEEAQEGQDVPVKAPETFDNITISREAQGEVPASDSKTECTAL
# Experimental: Binding was assessed by flow cytometry using HEK293-6e cells as described below.
# HEK293-6e cells were transfected for ˜24 hours to transiently express human NaPi2b (1 μg of pTT5-NaPi2b per 1 million cells) or transfected with GFP (ATUM, Menlo Park, CA; pD2610-v23, also 1 μg of DNA per 1 million cells). Following transfection, human NaPi2b-expressing HEK296-6e cells and transfected GFP-expressing HEK296-6e cells were mixed at 4:1 ratio. Each well of a V-bottom 96-well plate was seeded with 100,000 cells of the mixture and incubated with 100 μg/mL of unlabeled competitor anti-NaPi2b antibody for an hour on ice. Post incubation, cells were washed and stained with 1 μg/mL of AF647-conjugated anti-NaPi2b detection antibodies for an hour on ice. Following staining and washing, fluorescence was detected by flow cytometry on a BD LSRFortessa™ Cell Analyzer (BD Biosciences, Franklin Lake, NJ) with 10,000 minimum events collected per well. The AF647/APC-A GeoMean (fluorescence signal geometric mean, proportional to anti-Human AF647 binding) was calculated for the FITC/GFP negative live cell population and using FlowJo™ Version 10.8.1 (BD Biosciences, Franklin Lake, NJ). Percentage inhibition was calculated using the following formula: […]
# cynomolgus NaPi2b = assay: Flow cytometry binding to HEK293-6e cells transfected with cynomolgus NaPi2b (Example 5); conditions: transfected HEK293-6e cells, 18-24 hours at 4° C.
# Experimental: The binding cross-reactivity of humanized antibody variant v29456 to human, cynomolgus and mouse NaPi2b was assessed by flow cytometry using HEK293-6e transfected cells.
# Briefly, HEK293-6e cells were transfected for ˜24 hours to transiently express human NaPi2b, cynomolgus or mouse NaPi2b, at 1 μg of DNA per 1 million cells. Following transfection, 50,000 cells per well were seeded in V-bottom 96-well plates and incubated with 200 nM of primary antibody for 18-24 hours at 4° C. to prevent internalization. Post-incubation, cells were washed and stained with anti-Human IgG Fc AF647 conjugate (Jackson Immuno Research Labs, West Grove, PA, Cat. No. 109-605-098, Lot. No. 124868) at 4° C. for 1 hour. Following staining and washing, fluorescence was detected by flow cytometry on BD LSRFortessa™ Cell Analyzer (BD Biosciences, Franklin Lake, NJ) with 10,000 minimum events collected per well. The AF647/APC-A GeoMean (fluorescence signal geometric mean, proportional to anti-Human AF647 binding) was calculated for the live singlet cell population for each primary antibody using FlowJo™ v8 software (BD Biosciences, Franklin Lake, NJ). The Bmax and Kd of each primary antibody were calculated using GraphPad Prism Version 9 (GraphPad Software, San Diego, CA)
# OVCAR-3 cells = assay: In vitro cytotoxicity, 2D monolayer, CellTiter-Glo, OVCAR-3; assay type: cell-based, human; conditions: OVCAR-3, 4 days; IC = Incomplete Curve
# Experimental: (§1) The cytotoxicity as measured by cell growth inhibition of the humanized variant v29456 (H1L2) conjugated to various drug-linkers were assessed in a panel of NaPi2b-expressing cell lines as described below. Cell lines used were OVCAR-3 (ovarian carcinoma), IGROV-1 (ovarian carcinoma), and HCC-78 (lung carcinoma). ADCs with antibody palivizumab (anti-RSV) (v22277) were used as non-targeted controls.
# (§2) OVCAR-3 were cultured in RPMI 1640 Medium, ATCC modification (Thermo Fisher Scientific, Waltham, MA) supplemented with 20% fetal bovine serum (FBS) (Thermo Fisher Scientific, Waltham, MA) and 0.01 μg/mL human insulin (Sigma-Aldrich, Oakville, ON). […] After incubation, CellTiter-Glo® reagent (Promega Corporation, Madison, WI) was added in all wells and luminescence corresponding to ATP present in each well was measured using a Synergy™H1 plate reader (BioTek Instruments, Winooski, VT). Percent cytotoxicity values were calculated by the following formula: (1−(Luminescence of Treated Cells/Average Luminescence of Untreated Cells))×100, and plotted against test article concentration using GraphPad Prism 9 software (GraphPad Software, San Diego, CA). EC50 values were calculated based on a non-linear regression log(agonist) versus response, variable slope (four parameters) by GraphPad Prism 9.
# HCC-78 cells = assay: In vitro cytotoxicity, 2D monolayer, CellTiter-Glo, HCC-78; assay type: cell-based, human; conditions: HCC-78, 4 days
# Experimental: as §1, §2
# IGROV-1 cells = assay: In vitro cytotoxicity, 2D monolayer, CellTiter-Glo, IGROV-1; assay type: cell-based, human; conditions: IGROV-1, 4 days
# Experimental: as §1, §2
# Chain of cynomolgus NaPi2b (as listed by the source): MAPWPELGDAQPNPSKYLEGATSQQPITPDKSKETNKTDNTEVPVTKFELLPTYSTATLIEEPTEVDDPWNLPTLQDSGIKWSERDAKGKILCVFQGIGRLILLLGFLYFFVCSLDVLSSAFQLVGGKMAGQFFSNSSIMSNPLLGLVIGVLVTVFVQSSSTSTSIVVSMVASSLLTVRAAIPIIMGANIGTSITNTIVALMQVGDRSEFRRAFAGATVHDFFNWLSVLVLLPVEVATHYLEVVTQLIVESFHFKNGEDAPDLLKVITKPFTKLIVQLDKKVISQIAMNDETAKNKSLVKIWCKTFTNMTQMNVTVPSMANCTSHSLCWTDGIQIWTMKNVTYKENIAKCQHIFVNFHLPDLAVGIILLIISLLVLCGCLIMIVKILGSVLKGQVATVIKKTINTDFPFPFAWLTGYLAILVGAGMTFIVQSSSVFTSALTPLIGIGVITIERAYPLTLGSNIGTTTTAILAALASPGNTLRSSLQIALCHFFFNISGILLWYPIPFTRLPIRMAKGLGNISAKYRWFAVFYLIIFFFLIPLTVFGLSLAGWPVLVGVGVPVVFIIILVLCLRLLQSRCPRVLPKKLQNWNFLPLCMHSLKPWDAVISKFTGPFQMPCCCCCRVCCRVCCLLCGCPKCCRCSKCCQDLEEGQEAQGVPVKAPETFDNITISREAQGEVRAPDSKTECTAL
Substance,"Bmax (APC-A GeoMean), Cyno NaPi2b (cynomolgus NaPi2b)",EC50 (OVCAR-3 cells),EC50 (HCC-78 cells),EC50 (IGROV-1 cells),further results
"v16955: Palivizumab (anti-RSV), negative control antibody in the competition binding",–,–,–,–,"% Inhibition vs. irrelevant mAb, labeled detection antibody v16955 (negative control) (human NaPi2b; labeled detection antibody v16955 1 μg/mL): 0%; % Inhibition vs. irrelevant mAb, labeled detection antibody v18992 (MX35) (human NaPi2b; labeled detection antibody v18992 1 μg/mL): 0%; % Inhibition vs. irrelevant mAb, labeled detection antibody v18993 (lifastuzumab) (human NaPi2b; labeled detection antibody v18993 1 μg/mL): 0%; % Inhibition vs. irrelevant mAb, labeled detection antibody v23855 (human NaPi2b; labeled detection antibody v23855 1 μg/mL): 0%"
v18992: anti-NaPi2b reference humanized antibody MX35 [reference compound],"2,365 APC-A GeoMean",–,–,–,–
v18993: anti-NaPi2b reference humanized antibody lifastuzumab [reference compound],"1,557 APC-A GeoMean",–,–,–,–
"v22277-DL1: non-targeted control ADC of palivizumab v22277 with MC-GGFG-AM-DXd1 (DL1), DAR 8",–,> 50 nM,> 50 nM,> 50 nM,–
"v22277-DL3: non-targeted control ADC of palivizumab v22277 with MC-VC-PABC-MMAE (DL3), DAR 4",–,9.4 nM,11.4 nM,7.02 nM,–
